# Measurements: patent US20240335548A1, “MACROMOLECULES” (Starpharma Pty Ltd, priority 2011, published 2024)
# Where two headings read alike, the source gives them in different places.
# How the values were obtained:
# MCAS (Ovarian) = experiment: Cell growth inhibition SRB assay; format: cell-based
# Procedure: (§1) All solutions were prepared in saline (except docetaxel which was made in ethanol). All solutions were stored at −20° C. All values were based on the equivalent drug loading.
# H460 (Lung) = experiment: Cell growth inhibition SRB assay; format: cell-based
# Procedure: as §1
# A2058 (Melanoma) = experiment: Cell growth inhibition SRB assay; format: cell-based
# Procedure: as §1
# DU145 (Prostate) = experiment: Cell growth inhibition SRB assay; format: cell-based
# Procedure: as §1
# ES2 (Ovarian) = experiment: Cell growth inhibition SRB assay; format: cell-based
# Procedure: as §1
# PC-3 (Prostate) = experiment: Cell growth inhibition SRB assay; format: cell-based
# Procedure: as §1
# HT29 (Colon) = experiment: Cell growth inhibition SRB assay; format: cell-based
# Procedure: as §1
# HCT116 (Colon) = experiment: Cell growth inhibition SRB assay; format: cell-based
# Procedure: as §1
# A549 (Lung) = experiment: Cell growth inhibition SRB assay; format: cell-based
# Procedure: as §1
# MDA-MB-231 (Breast) = experiment: Cell growth inhibition SRB assay; format: cell-based
# Procedure: as §1
# [1] = day 16, one day after final dose
# Procedure: The 20 mice were randomised into 5 groups of four mice (mean tumour volume ˜90 mm^3). Animals were eye bled in the morning for baseline blood cell counts and then drug dosing commenced later that day (day 1). […] A second eye bleed was performed on day 11 (Table 7 A-C). Mice were killed one day following the final drug dose (day 16).
# [2] = Water solubility study on drug loaded dendrimers; format: physicochemical
# Procedure: Protocol: To 30 mg of dendrimer (freeze-dried from water) was added 100 μL of deionised water. After mixing for 10 minutes, additional aliquots of water (10-30 μL per addition) were added with vortexing and incubation for 10 mins until full dissolution was obtained. This amount is represented in Table 1 as the water solubility of the dendrimer. The equivalent drug solubility is determined by multiplying the % drug loading/100 and is represented in Table 1 (column 3) as Equivalent drug solubility on dendrimer. Finally, the fold increase is obtained by dividing the Equivalent drug solubility on dendrimer by the solubility of the drug and is represented in Table 1 (column 4).
# [3] = Plasma stability study: docetaxel release in mouse plasma; format: in vitro ADME; settings: 37° C.
# Procedure: Protocol: To 0.5 mL of mouse plasma was added 0.1 mL of dendrimer solution (2 mg/mL, drug equivalent in saline). The mixtures were vortexed (30 s) then incubated at 37° C. At various timepoints (0.5, 2.5, 4.5, 22 hours) 0.1 mL aliquots were removed and added to 0.2 mL ACN. The resulting mixtures were vortexed (30 s), centrifuged (10 min, 4° C.) filtered and analysed by HPLC (C8, 3.9×150 mm, 5 μm, wavelength=243 nm, 10 μL injections, gradient: 40-80% ACN/H2O (1-7 min), 80% ACN (7-9 min), 80-40% ACN (9-11 min), 40% ACN (11-15 min), 10 mM ammonium formate, pH 7.40) which when compared against a standard (2 mg//mL) provided the concentration of free docetaxel in the sample.
# MCF-7 = experiment: IC50 using the MTT assay; format: cell-based; settings: 72 hours
# Procedure: (§2) The IC50 using the MTT assay [Wilson, Anne P. (2000). “Chapter 7: Cytotoxicity and viability”. In Masters, John R. W. Animal Cell Culture: A Practical Approach. Vol. 1 (3rd ed.). Oxford: Oxford University Press] was determined against various cancer cell lines after 72 hours.
# DU-145 = experiment: IC50 using the MTT assay; format: cell-based; settings: 72 hours
# Procedure: as §2
# A2780 = experiment: IC50 using the MTT assay; format: cell-based; settings: 72 hours
# Procedure: as §2
# HT-29 = experiment: IC50 using the MTT assay; format: cell-based; settings: 72 hours
# Procedure: as §2
# H460 = experiment: IC50 using the MTT assay; format: cell-based; settings: 72 hours
# Procedure: as §2
# PC-3 = experiment: IC50 using the MTT assay; format: cell-based; settings: 72 hours
# Procedure: as §2
# HCT-116 = experiment: IC50 using the MTT assay; format: cell-based; settings: 72 hours
# Procedure: as §2
# A549 = experiment: IC50 using the MTT assay; format: cell-based; settings: 72 hours
# Procedure: as §2
# [4] = MCAS, 72 hours, equivalent drug loading, average of duplicate
# [5] = H460, 72 hours, equivalent drug loading, average of duplicate
# [6] = A2058, 72 hours, equivalent drug loading, average of duplicate
# [7] = DU145, 72 hours, equivalent drug loading, average of duplicate
# [8] = ES2, 72 hours, equivalent drug loading, average of duplicate
# [9] = PC-3, 72 hours, equivalent drug loading, average of duplicate
# [10] = HT29, 72 hours, equivalent drug loading, average of duplicate
# [11] = HCT116, 72 hours, equivalent drug loading, average of duplicate
# [12] = A549, 72 hours, equivalent drug loading, average of duplicate
# [13] = MDA-MB-231, 72 hours, equivalent drug loading, average of duplicate
# [14] = deionised water, until full dissolution
# [15] = water solubility x % drug loading/100
# [16] = equivalent drug solubility divided by solubility of the drug
substance,measurement,setting,value
BHALys[Lys]32[α-4-HSBA-4Aba-DTX]32[ε-PEG1100]32 [1 (b)],GI50,MCAS (Ovarian); [4],29 nM
same,GI50,H460 (Lung); [5],13 nM
same,GI50,A2058 (Melanoma); [6],9.5 nM
same,GI50,DU145 (Prostate); [7],11.5 nM
same,GI50,ES2 (Ovarian); [8],16.5 nM
same,GI50,PC-3 (Prostate); [9],17 nM
same,GI50,HT29 (Colon); [10],12.5 nM
same,GI50,HCT116 (Colon); [11],8.5 nM
same,GI50,A549 (Lung); [12],13 nM
same,GI50,MDA-MB-231 (Breast); [13],11.5 nM
BHALys[Lys]32[α-4-HSBA-Cp-DTX]32[ε-PEG1100]32 [Example 4 (c)],GI50,MCAS (Ovarian); [4],20 nM
same,GI50,H460 (Lung); [5],11 nM
same,GI50,A2058 (Melanoma); [6],8 nM
same,GI50,DU145 (Prostate); [7],12 nM
same,GI50,ES2 (Ovarian); [8],8.6 nM
same,GI50,PC-3 (Prostate); [9],21.5 nM
same,GI50,HT29 (Colon); [10],9.5 nM
same,GI50,HCT116 (Colon); [11],9 nM
same,GI50,A549 (Lung); [12],8.5 nM
same,GI50,MDA-MB-231 (Breast); [13],6.5 nM
same,Mean Tumour Weights (g) (sd),[1],0.079 g
same,Water solubility of dendrimer,[2]; [14],109 mg/mL
same,Equivalent drug solubility on dendrimer,[2]; [15],22 mg/mL
same,Docetaxel release in plasma,[3]; 0.5 hours,1.5 percentage of total docetaxel
same,Docetaxel release in plasma,[3]; 2.5 hours,10 percentage of total docetaxel
same,Docetaxel release in plasma,[3]; 22 hours,17.5 percentage of total docetaxel
BHALys[Lys]32[α-DGA-Testosterone]32[ε-PEG570]32 [Example 21],Equivalent drug solubility on dendrimer,[2],14.8 mg/mL
same,Fold increase in drug solubility,[2],618
same,Water solubility of dendrimer,[2],>81 mg/mL
BHALys[Lys]32[α-DGA-Testosterone]32[ε-PEG1100]32 [20 (b)],Equivalent drug solubility on dendrimer,[2],11.5 mg/mL
same,Fold increase in drug solubility,[2],482
same,Water solubility of dendrimer,[2],>75 mg/mL
BHALys[Lys]32[α-GFLG-Glu-DTX]32[ε-PEG1100]32 [15 (c)],IC50,MCF-7,8.3 nM
same,IC50,DU-145,29.5 nM
same,IC50,A2780,13.6 nM
same,IC50,HT-29,5.7 nM
same,IC50,H460,31.8 nM
same,IC50,PC-3,11.8 nM
same,IC50,HCT-116,7.2 nM
same,IC50,A549,8.1 nM
BHALys[Lys]32[α-GGG-Glu-DTX]32[ε-PEG1100]32 [14 (c)],IC50,MCF-7,0.5 nM
same,IC50,DU-145,7.3 nM
same,IC50,A2780,4.6 nM
same,IC50,HT-29,0.5 nM
same,IC50,H460,4.3 nM
same,IC50,PC-3,3.8 nM
same,IC50,HCT-116,2.6 nM
same,IC50,A549,1.5 nM
BHALys[Lys]32[α-GILGVP-Glu-DTX]32[ε-t-PEG2300]32 [Example 17],IC50,MCF-7,93.7 nM
same,IC50,DU-145,290 nM
same,IC50,A2780,291 nM
same,IC50,HT-29,85 nM
same,IC50,H460,603 nM
same,IC50,PC-3,359 nM
same,IC50,HCT-116,216 nM
same,IC50,A549,160 nM
BHALys[Lys]32[α-Glu-DTX]32[ε-PEG1100]32 [5 (b)],GI50,MCAS (Ovarian),252 nM
same,GI50,H460 (Lung),106 nM
same,GI50,A2058 (Melanoma),71.5 nM
same,GI50,DU145 (Prostate),148 nM
same,GI50,ES2 (Ovarian),116 nM
same,GI50,PC-3 (Prostate),160 nM
same,GI50,HT29 (Colon),97.5 nM
same,GI50,HCT116 (Colon),85.5 nM
same,GI50,A549 (Lung),56.5 nM
same,GI50,MDA-MB-231 (Breast),50.5 nM
same,Water solubility of dendrimer,[2]; [14],214 mg/mL
same,Fold increase in drug solubility,[2]; [16],4000
same,Equivalent drug solubility on dendrimer,[2]; [15],75 mg/mL
same,Docetaxel release in plasma,[3]; 0.5 hours,0 percentage of total docetaxel
same,Docetaxel release in plasma,[3]; 2.5 hours,0 percentage of total docetaxel
same,Docetaxel release in plasma,[3]; 22 hours,4 percentage of total docetaxel
BHALys[Lys]32[α-Glu-GEM]32[ε-PEG1100]32 [13 (b)],GI50,MCAS (Ovarian); [4],117 nM
same,GI50,H460 (Lung); [5],127 nM
same,GI50,A2058 (Melanoma); [6],100 nM
same,GI50,DU145 (Prostate); [7],99 nM
same,GI50,ES2 (Ovarian); [8],48 nM
same,GI50,PC-3 (Prostate); [9],288 nM
same,GI50,HT29 (Colon); [10],117 nM
same,GI50,HCT116 (Colon); [11],30.5 nM
same,GI50,A549 (Lung); [12],73 nM
same,GI50,MDA-MB-231 (Breast); [13],50.5 nM
BHALys[Lys]32[α-Glu-PTX]32[ε-PEG2300]32 [Example 12],Water solubility of dendrimer,[2],15 mg/mL
same,Fold increase in drug solubility,[2]; [16],10000
same,Equivalent drug solubility on dendrimer,[2]; [15],3 mg/mL
BHALys[Lys]32[α-Glu-Testosterone]32[ε-PEG570]32 [Example 23],Equivalent drug solubility on dendrimer,[2],26.6 mg/mL
same,Fold increase in drug solubility,[2],1109
same,Water solubility of dendrimer,[2],>125 mg/mL
BHALys[Lys]32[α-Glu-Testosterone]32[ε-PEG1100]32 [22 (b)],Equivalent drug solubility on dendrimer,[2],14.7 mg/mL
same,Fold increase in drug solubility,[2],610
same,Water solubility of dendrimer,[2],>89 mg/mL
BHALys[Lys]32[α-MIDA-DTX]32[ε-PEG1100]32 [6 (b)],GI50,H460 (Lung),11 nM
same,GI50,ES2 (Ovarian),12.5 nM
same,GI50,PC-3 (Prostate),10.5 nM
same,Water solubility of dendrimer,[2]; [14],100 mg/mL
same,Fold increase in drug solubility,[2]; [16],6400
same,Equivalent drug solubility on dendrimer,[2]; [15],32 mg/mL
same,Docetaxel release in plasma,[3]; 0.5 hours,7.5 percentage of total docetaxel
same,Docetaxel release in plasma,[3]; 2.5 hours,9 percentage of total docetaxel
same,Docetaxel release in plasma,[3]; 22 hours,23.5 percentage of total docetaxel
BHALys[Lys]32[α-PDT-DTX]32[ε-PEG1100]32 [9 (b)],GI50,H460 (Lung); [5],365 nM
same,GI50,ES2 (Ovarian); [8],888 nM
same,GI50,PC-3 (Prostate); [9],618 nM
BHALys[Lys]32[α-PEG2-DTX]32[ε-PEG1100]32 [10 (b)],GI50,H460 (Lung); [5],6.5 nM
same,GI50,ES2 (Ovarian); [8],10.5 nM
same,GI50,PC-3 (Prostate); [9],9.5 nM
BHALys[Lys]32[α-PEG1100]32[ε-TDA-DTX]32 [Example 18],IC50,MCF-7,3.3 nM
same,IC50,DU-145,11.6 nM
same,IC50,A2780,5.7 nM
same,IC50,HT-29,1.8 nM
same,IC50,H460,7.5 nM
same,IC50,PC-3,5.9 nM
same,IC50,HCT-116,2.9 nM
same,IC50,A549,20.3 nM
BHALys[Lys]32[α-PSSP-DTX]32[ε-PEG1100]32 [2 (b)],GI50,H460 (Lung); [5],73 nM
same,GI50,ES2 (Ovarian); [8],116 nM
same,GI50,PC-3 (Prostate); [9],110 nM
same,Water solubility of dendrimer,[2],57 mg/mL
same,Fold increase in drug solubility,[2]; [16],2800
same,Equivalent drug solubility on dendrimer,[2]; [15],14 mg/mL
same,Docetaxel release in plasma,[3]; 0.5 hours,5 percentage of total docetaxel
same,Docetaxel release in plasma,[3]; 2.5 hours,8 percentage of total docetaxel
same,Docetaxel release in plasma,[3]; 22 hours,15.5 percentage of total docetaxel
BHALys[Lys]32[α-o-PDA-DTX]32[ε-PEG1100]32 [7 (b)],GI50,H460 (Lung),4.5 nM
same,GI50,ES2 (Ovarian),8 nM
same,GI50,PC-3 (Prostate),6.5 nM
same,Water solubility of dendrimer,[2]; [14],91 mg/mL
same,Fold increase in drug solubility,[2]; [16],5000
same,Equivalent drug solubility on dendrimer,[2]; [15],25 mg/mL
same,Docetaxel release in plasma,[3]; 0.5 hours,20.5 percentage of total docetaxel
same,Docetaxel release in plasma,[3]; 2.5 hours,32 percentage of total docetaxel
same,Docetaxel release in plasma,[3]; 22 hours,71.5 percentage of total docetaxel
